Test results published in ChEMBL document CHEMBL1201862, “PubChem BioAssay data set” (2004).
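Interpolation was linear, between the two tested concentrations surrounding the appropriate level; five concentrations were tested over 48 hours in 96-well plates. At the GI50, growth is halved.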 Activity calls are given as the source filed them. No stated cut-off is given here; in the data, active = GI50 up to about 1.1 µM and inactive = higher.

Assays:
Assay in all cases: NCI tumour cell line growth inhibition, 48 h
PC-3 = tested on: PC-3
HT-29 = tested on: HT-29
NCI-H460 = tested on: NCI-H460
SF-295 = tested on: SF-295
SW-620 = tested on: SW-620
HOP-92 = tested on: HOP-92
OVCAR-8 = tested on: OVCAR-8
NCI-H522 = tested on: NCI-H522
A549 = tested on: A549
SF-268 = tested on: SF-268
SN12C = tested on: SN12C
HCT-116 = tested on: HCT-116
RPMI-8226 = tested on: RPMI-8226
SNB-75 = tested on: SNB-75
A498 = tested on: A498
SR = tested on: SR
SK-MEL-5 = tested on: SK-MEL-5
IGROV-1 = tested on: IGROV-1
SF-539 = tested on: SF-539
SK-MEL-28 = tested on: SK-MEL-28
EKVX = tested on: EKVX
CAKI-1 = tested on: CAKI-1
BT-549 = tested on: BT-549
MDA-MB-231 = tested on: MDA-MB-231
ACHN = tested on: ACHN
TK-10 = tested on: TK-10
K562 = tested on: K562
RXF 393 = tested on: RXF 393
SNB-19 = tested on: SNB-19
MOLT-4 = tested on: MOLT-4
SK-OV-3 = tested on: SK-OV-3
Hs-578T = tested on: Hs-578T
HL-60 = tested on: HL-60
U-251 = tested on: U-251
CCRF-CEM = tested on: CCRF-CEM
SK-MEL-2 = tested on: SK-MEL-2
KM12 = tested on: KM12
NCI/ADR-RES = tested on: NCI/ADR-RES
COLO 205 = tested on: COLO 205
786-0 = tested on: 786-0
HCT-15 = tested on: HCT-15
NCI-H226 = tested on: NCI-H226
OVCAR-4 = tested on: OVCAR-4
UACC-62 = tested on: UACC-62
MDA-MB-435 = tested on: MDA-MB-435
DU-145 = tested on: DU-145
UACC-257 = tested on: UACC-257
MDA-N = tested on: MDA-N
M14 = tested on: M14
T47D = tested on: T47D
OVCAR-5 = tested on: OVCAR-5
UO-31 = tested on: UO-31
Malme-3M = tested on: Malme-3M
NCI-H23 = tested on: NCI-H23
HCC 2998 = tested on: HCC 2998
OVCAR-3 = tested on: OVCAR-3
LOX IMVI = tested on: LOX IMVI
HOP-62 = tested on: HOP-62
MCF7 = tested on: MCF7

Measured: GI50

Clc1nc(Nc2nc3ccccc3[nH]2)nc(Cl)c1-c1ccccc1
14.4 µM: HCT-15
inactive: PC-3 23 µM | HT-29 16.8 µM | NCI-H460 12.2 µM | SF-295 18 µM | SW-620 11.2 µM | HOP-92 8.65 µM | OVCAR-8 27.7 µM | NCI-H522 17.3 µM | A549 34.7 µM | SF-268 33 µM | SN12C 12.6 µM | HCT-116 21.1 µM | RPMI-8226 34.3 µM | SNB-75 9.38 µM | A498 21.5 µM | SR 29.1 µM | SK-MEL-5 20.9 µM | IGROV-1 19 µM | SF-539 18.1 µM | SK-MEL-28 11.7 µM | EKVX 23.6 µM | CAKI-1 31.1 µM | BT-549 16.5 µM | MDA-MB-231 12.7 µM | ACHN 15.8 µM | TK-10 39.4 µM | K562 25.2 µM | RXF 393 16.9 µM | SNB-19 36.1 µM | MOLT-4 76 µM | SK-OV-3 22.1 µM | Hs-578T 21.5 µM | HL-60 36.1 µM | U-251 15.9 µM | CCRF-CEM 19.5 µM | SK-MEL-2 23.3 µM | KM12 40.8 µM | NCI/ADR-RES 27.7 µM | COLO 205 19.1 µM | 786-0 16.1 µM | NCI-H226 20.5 µM | OVCAR-4 14.8 µM | UACC-62 18.1 µM | MDA-MB-435 29.3 µM | DU-145 74.3 µM | UACC-257 29.7 µM | MDA-N 10.3 µM | M14 35.1 µM | T47D 40.7 µM | OVCAR-5 28.3 µM | UO-31 20.8 µM | Malme-3M 19.1 µM | NCI-H23 17.3 µM

O=c1c(S(=O)(=O)Oc2ccccc2)coc2cc(F)ccc12
inactive: PC-3 > 100 µM | HT-29 > 100 µM | NCI-H460 > 100 µM | SF-295 30.3 µM | SW-620 > 100 µM | HCC 2998 > 100 µM | OVCAR-8 > 100 µM | NCI-H522 > 100 µM | A549 > 100 µM | SF-268 > 100 µM | SN12C > 100 µM | HCT-116 > 100 µM | SNB-75 30.9 µM | SR > 100 µM | SK-MEL-5 > 100 µM | IGROV-1 > 100 µM | SF-539 > 100 µM | SK-MEL-28 > 100 µM | EKVX > 100 µM | CAKI-1 > 100 µM | BT-549 37.2 µM | MDA-MB-231 > 100 µM | ACHN > 100 µM | OVCAR-3 > 100 µM | TK-10 > 100 µM | K562 > 100 µM | RXF 393 36.1 µM | SNB-19 > 100 µM | MOLT-4 > 100 µM | SK-OV-3 > 100 µM | LOX IMVI > 100 µM | Hs-578T 26.2 µM | U-251 > 100 µM | CCRF-CEM 65.3 µM | HOP-62 > 100 µM | SK-MEL-2 46.8 µM | KM12 > 100 µM | NCI/ADR-RES 32.4 µM | 786-0 > 100 µM | NCI-H226 17.4 µM | OVCAR-4 > 100 µM | UACC-62 60 µM | MDA-MB-435 > 100 µM | MCF7 74.8 µM | UACC-257 > 100 µM | MDA-N > 100 µM | M14 > 100 µM | T47D 55 µM | OVCAR-5 > 100 µM | UO-31 46.8 µM | Malme-3M > 100 µM | NCI-H23 82.2 µM
> 100 µM: HCT-15
